Results as given in patent publication US20260144875A1, “COMPOSITIONS AND METHODS FOR CROSSLINKING STRUCTURAL PROTEINS” (ADS Therapeutics LLC, priority 2022, published 2026).

Columns and labels:
[1] = system: porcine corneas; assay: Ex vivo RTB-UVA crosslinking, static stress-strain, without de-epithelialization; conditions: intact porcine eyes, corneas not de-epithelialized; RTB formulations in MCT or F6H8; UVA radiation
Method: Starting 5 minutes before the treatment, 0.1% riboflavin tetrabutyrate (RTB) photosensitizer solution (10 mg riboflavin tetrabutyrate in 10 mL MCT or F6H8 or a combination thereof) is dropped on the treated strips and MCT or F6H8 or combination solution is dropped on the control strips at 5-minute intervals. Ultraviolet A irradiation (370 nm) is applied using 2 double UVA diodes (Roithner Lasertechnik) with an irradiance of 3 mW/cm2 at a distance of 1.0 cm from the cornea for 30 minutes. This is equal to a dose of 5.4 J/cm^2. The parameters of exposure are chosen according to the treatment procedure used in keratoconus patients. Three 1.3 V accumulators are used as a power generator. […]
(§1) The porcine corneal strips are clamped horizontally at a distance of 8.0 mm between the jaws of a commercially available microcomputer-controlled biomaterial tester (Minimat, Rheometric Scientific GmbH. To include the physiological stress range, a prestress of 5×10^3 Pa (1 Pa=1 N/m2) is used, which requires a force of 20 mN in porcine corneas. The strain is then increased linearly with a velocity of 1.5 mm min-1, and the stress is measured up to 2×10^5 Pa. The stress-strain values are fitted by an exponential function σ=A exp (BX) using the SPSS-calculation program (SPSS GmbH Software, Munich). […]

[2] = system: porcine corneas; assay: Ex vivo study (Dresden method), RTB-UVA crosslinking, static stress-strain, de-epithelialized corneas; conditions: de-epithelialized porcine corneal strips; 0.1% RTB in MCT or F6H8 or combination; UVA 370 nm, 3 mW/cm2, 30 minutes
Method: Fresh porcine cadaver eyes with intact epithelia and clear corneas are retrieved from the local slaughterhouse within 2 to 5 hours post-mortem. The eyes are de-epithelialized mechanically, removing the corneoscleral ring with scissors. […] Because of the natural thickness of the porcine cornea, only 1 corneal strip with clearly cut perpendicular edges could be prepared properly from each eye. Half of the corneas are treated with RTB-UVA irradiation, and half are used as untreated controls. Using ultrasound pachymetry (Pachette, Technomed), the central corneal thickness is determined in the eyes. […]
as §1, with “Munich). Young's modulus (E) is calculated for 4%, 6%, and 8% strain as the gradient of the stress-strain graph (E=dσ/dε=A×B exp (B×ε).” for “Munich).”

CCCC(=O)OC[C@@H](OC(=O)CCC)[C@@H](OC(=O)CCC)[C@H](Cn1c2nc(=O)[nH]c(=O)c-2nc2cc(C)c(C)cc21)OC(=O)CCC [RTB, (2R,3S,4S)-5-(7,8-dimethyl-2,4-dioxo-3,4-dihydrobenzo[g]pteridin-10(2H)-yl) pentane-1,2,3,4-tetrayl tetrabutyrate]
stress using strain, treated vs untreated corneas [1]: greater in the treated corneas
stress using strain, treated vs untreated corneas [2]: greater in the treated corneas
